Key:
[1] = test system: SMN2 minigene mRNA (SMN2-A minigene) in HEK293H cells; experiment: SMN2 minigene mRNA splicing RT-qPCR assay in cultured cells; type: cell-based, human; details: Homo sapiens, HEK293-H; concentration increasing full length SMN2 mRNA 1.5-fold relative to vehicle-treated cells; HEK293H cells with SMN2-A minigene, 24 hours, 7-point concentration data; read-out: EC1.5x for production of full length SMN2 mRNA
Outline: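 Stable SMN2-A minigene HEK293H; cpd 7-pt 3.16-fold series, 200× in DMSO, 24 h, 37 °C, n=2. Lysates → multiplex RT-qPCR (minigene FL + GAPDH), efficiency-corrected ΔΔCt vs vehicle. EC1.5× = 1.5-fold FL mRNA gain.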

[2] = test system: Smn protein in SMA patient fibroblast cells (GM03813); experiment: Smn protein assay in cultured cells (SMN HTRF); type: cell-based, human; details: SMA patient fibroblast cells, 48 hours; for EC1.5x for Smn protein expression: 7-point concentration curve, SMN HTRF, concentration producing 1.5 times Smn protein vs DMSO vehicle control; for maximum fold (Fold) increase of Smn protein: 7-point concentration data, fold relative to vehicle control
Outline: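 Fibroblasts, SMA patient; 5,000 cells/well; 7-pt curve, 3.16-fold serial dilution; 48 h, 37 °C, 5% CO2; RIPA lysis 1 h RT; anti-SMN d2 + kryptate overnight RT; HTRF 665/620 nm; fold vs DMSO; EC1.5×, max fold.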

Structure (SMILES): CN1CCCN(c2ccc3nc(-c4ccc5c(cnn5C)c4)cc(=O)n3c2)CC1 [Compound 492, 7-(4-methyl-1,4-diazepan-1-yl)-2-(1-methyl-1H-indazol-5-yl)-4H-pyrido[1,2-a]pyrimidin-4-one]
- EC (1.5-fold increase) [1]: 0.3 to 1 µM
- EC1.5x for Smn protein expression [2]: ** (an EC1.5× between >1 μM and ≤3 μM is indicated by two stars (**))
- maximum fold (Fold) increase of Smn protein [2]: **** (a fold increase between >1.5 and ≤1.65 is indicated by four stars (****))

Structure (SMILES): Cc1cn2nc(-c3cc(=O)n4cc(C5CCNCC5)ncc4n3)cc2c(C)n1 [Compound 502, 2-(4,6-dimethylpyrazolo[1,5-a]pyrazin-2-yl)-7-(piperidin-4-yl)-4H-pyrazino[1,2-a]pyrimidin-4-one]
- EC (1.5-fold increase) [1]: < 0.1 µM
- EC1.5x for Smn protein expression [2]: **** (an EC1.5x≤0.3 μM is indicated by four stars (****))
- maximum fold (Fold) increase of Smn protein [2]: ***** (a fold increase >1.65 is indicated by five stars (*****))

Structure (SMILES): CCN1CCC(c2cn3c(=O)cc(-c4cc5c(C)nc(C)cn5n4)nc3cn2)CC1 [Compound 504, 2-(4,6-dimethylpyrazolo[1,5-a]pyrazin-2-yl)-7-(1-ethylpiperidin-4-yl)-4H-pyrazino[1,2-a]pyrimidin-4-one]
- EC (1.5-fold increase) [1]: < 0.1 µM
- EC1.5x for Smn protein expression [2]: **** (an EC1.5x≤0.3 μM is indicated by four stars (****))
- maximum fold (Fold) increase of Smn protein [2]: ***** (a fold increase >1.65 is indicated by five stars (*****))

Structure (SMILES): CCN1CC=C(c2cn3c(=O)cc(-c4ccc5c(cnn5C)c4)nc3cn2)CC1 [Compound 507, 7-(1-ethyl-1,2,3,6-tetrahydropyridin-4-yl)-2-(1-methyl-1H-indazol-5-yl)-4H-pyrazino[1,2-a]pyrimidin-4-one]
- EC (1.5-fold increase) [1]: 0.1 to 0.3 µM
- EC1.5x for Smn protein expression [2]: *** (an EC1.5× between >0.3 μM and ≤1 μM is indicated by three stars (***))
- maximum fold (Fold) increase of Smn protein [2]: **** (a fold increase between >1.5 and ≤1.65 is indicated by four stars (****))

Structure (SMILES): CCN1CCN(c2cc(C)c3nc(-c4cc5c(C)nc(C)cn5n4)cc(=O)n3c2)CC1 [Compound 508, 2-(4,6-dimethylpyrazolo[1,5-a]pyrazin-2-yl)-7-(4-ethylpiperazin-1-yl)-9-methyl-4H-pyrido[1,2-a]pyrimidin-4-one]
- EC (1.5-fold increase) [1]: < 0.1 µM
- EC1.5x for Smn protein expression [2]: *** (an EC1.5× between >0.3 μM and ≤1 μM is indicated by three stars (***))
- maximum fold (Fold) increase of Smn protein [2]: **** (a fold increase between >1.5 and ≤1.65 is indicated by four stars (****))

Structure (SMILES): Cc1cn2nc(-c3cc(=O)n4nc(C5CCNCC5)ccc4n3)cc2c(C)n1 [Compound 512, 2-(4,6-dimethylpyrazolo[1,5-a]pyrazin-2-yl)-7-(piperidin-4-yl)-4H-pyrimido[1,2-b]pyridazin-4-one]
- EC (1.5-fold increase) [1]: < 0.1 µM
- EC1.5x for Smn protein expression [2]: **** (an EC1.5x≤0.3 μM is indicated by four stars (****))
- maximum fold (Fold) increase of Smn protein [2]: ***** (a fold increase >1.65 is indicated by five stars (*****))

Structure (SMILES): Cc1cn2nc(-c3cc(=O)n4cc(N5CCCN(C)CC5)cc(C)c4n3)cc2c(C)n1 [Compound 520, 2-(4,6-dimethylpyrazolo[1,5-a]pyrazin-2-yl)-9-methyl-7-(4-methyl-1,4-diazepan-1-yl)-4H-pyrido[1,2-a]pyrimidin-4-one]
- EC (1.5-fold increase) [1]: 0.1 to 0.3 µM
- EC1.5x for Smn protein expression [2]: **** (an EC1.5x≤0.3 μM is indicated by four stars (****))
- maximum fold (Fold) increase of Smn protein [2]: **** (a fold increase between >1.5 and ≤1.65 is indicated by four stars (****))

Structure (SMILES): Cn1cc2cc(-c3cc(=O)n4nc(C5CCNCC5)ccc4n3)ccc2n1 [Compound 521, 2-(2-methyl-2H-indazol-5-yl)-7-(piperidin-4-yl)-4H-pyrimido[1,2-b]pyridazin-4-one]
- EC (1.5-fold increase) [1]: 0.1 to 0.3 µM
- EC1.5x for Smn protein expression [2]: **** (an EC1.5x≤0.3 μM is indicated by four stars (****))
- maximum fold (Fold) increase of Smn protein [2]: ***** (a fold increase >1.65 is indicated by five stars (*****))

Reference: patent US11753407B2, “Compounds for treating spinal muscular atrophy” (PTC Therapeutics, Inc., priority 2012, dated 2023)
